Key:
[1] = target: T1, TLR7 (Homo sapiens, UniProt Q9NYK1); assay: Inhibition of R848-induced signaling in HEK-Blue hTLR7 cell line (Quanti-Blue); format: cell-based
T1 construct: host or cells: HEK-Blue hTLR7 (HEK293-derived SEAP reporter cells)
T1 sequence (Q9NYK1 27-1049): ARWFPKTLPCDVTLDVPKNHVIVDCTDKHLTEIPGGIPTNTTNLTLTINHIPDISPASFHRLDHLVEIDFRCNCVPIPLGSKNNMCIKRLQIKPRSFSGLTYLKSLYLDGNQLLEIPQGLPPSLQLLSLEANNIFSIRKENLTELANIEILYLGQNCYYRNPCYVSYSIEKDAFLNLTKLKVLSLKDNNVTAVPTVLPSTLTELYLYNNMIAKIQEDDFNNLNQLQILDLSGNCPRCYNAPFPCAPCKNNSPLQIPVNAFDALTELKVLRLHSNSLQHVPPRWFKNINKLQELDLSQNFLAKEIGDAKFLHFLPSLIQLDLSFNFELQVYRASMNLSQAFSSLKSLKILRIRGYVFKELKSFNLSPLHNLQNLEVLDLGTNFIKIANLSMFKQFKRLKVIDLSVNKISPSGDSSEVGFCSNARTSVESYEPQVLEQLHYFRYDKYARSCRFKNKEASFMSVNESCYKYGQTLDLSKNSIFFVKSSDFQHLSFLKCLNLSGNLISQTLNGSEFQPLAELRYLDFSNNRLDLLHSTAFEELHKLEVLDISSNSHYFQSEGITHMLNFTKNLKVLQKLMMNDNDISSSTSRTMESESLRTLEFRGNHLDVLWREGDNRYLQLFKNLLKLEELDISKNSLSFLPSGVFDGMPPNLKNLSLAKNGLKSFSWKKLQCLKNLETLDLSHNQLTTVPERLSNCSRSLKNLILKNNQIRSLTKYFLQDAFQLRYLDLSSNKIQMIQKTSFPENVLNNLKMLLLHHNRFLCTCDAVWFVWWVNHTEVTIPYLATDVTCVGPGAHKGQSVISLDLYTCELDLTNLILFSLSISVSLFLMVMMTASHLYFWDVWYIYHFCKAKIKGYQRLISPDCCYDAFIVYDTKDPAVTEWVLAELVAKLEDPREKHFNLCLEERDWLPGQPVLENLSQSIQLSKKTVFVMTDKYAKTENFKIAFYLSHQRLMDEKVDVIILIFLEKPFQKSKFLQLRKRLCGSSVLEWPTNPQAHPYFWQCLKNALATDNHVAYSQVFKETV
Procedure: (§1) HEK Blue hTLR8 cells or HEK Blue hTLR7 cells were cultured in DMEM medium supplemented with 10% fetal bovine serum, penicillin (100 U/mL) and streptomycin ([…]). Thereafter, cells were seeded in 96-well plate (45,000 cells per well), and were cultured for 24 hours in a humidified incubator (37° C., 5% CO2).
After 24 hours, the supernatant and suspending cells were aspirated and replaced with fresh serum-free DMEM. Cells were treated with 1 μg/mL of R848 (agonist of TLR7/8) or 5 μg/mL of ssRNA40/LyoVec or 5 μg/mL of ORN06/LyoVec (InvivoGen) and compounds with specified concentrations, and were placed in a humidified incubator (37° C., 5% CO2) for co-culture.
(§2) After 24 hours, 50 μL of the medium was aspirated from each well and then added to a new 96-well plate, followed by the addition of 50 μL of Quanti-Blue in each well and the incubation at 37° C. in darkness. Changes in color would occur in the […] within 60 minutes, and the absorbance was measured at 620 nm by using the multi-mode plate reader Vrioskan Flash. Inhibition rate (%)=[R848 (OD620)−Compound (OD620)]/[R848 (OD620)−Control (OD620)]×100%. Among these, the control group was only added with the same amount of cells. Finally, the software Prism 6.0 was utilized to plot a graph and calculate IC50 values. Or, the activity of the cells treated with ligand and DMSO was defined as 100% activity, and the activity of the untreated cells was defined as 0% activity.

[2] = system: HEK-Blue hTLR8 cell line; assay: Toxicity test of compounds (CCK-8 cell viability); format: cell-based, human; design: key to WST1 (normalized toxicity effect): viability relative to control well (background-subtracted OD), 1 = control; details: normalized cell viability, HEK-Blue cell lines
Procedure: In the 96-well plate used for the above-mentioned activity test of compounds (remaining 50 μL of culture medium containing cells), 5 μL of CellCountingKit-8 (CCK-8) Supermix was added to each well. Note that the introduction of air bubbles into the wells should be avoided since the air bubbles would interfere with the detection of OD value.
The culture plate was incubated in an incubator for 1 to 4 hours,
The edge of the 96-well plate could be tapped gently before reading the plate, and then the absorbance at 450 nm was measured by using the multi-mode plate reader.
Cell viability (%) was determined using the following formula: cell viability (%)=([Compound well ([…])−Background well (OD450)]/[Control well ([…])−Background well (OD450)])×100%. Among these, the background well was only added with the medium and CCK-8 reagent, the control well was only added with the medium, cells, R848 and CCK-8, and the compound wells were added with the medium, cells, R848, compounds in different concentrations, and CCK-8.

[3] = target: T2, TLR8 (Homo sapiens, UniProt Q9NR97); assay: Inhibition of R848-induced signaling in HEK-Blue hTLR8 cell line (Quanti-Blue); format: cell-based; details: HEK-Blue hTLR8 cell line; normalized, ligand+DMSO = 100% activity, untreated = 0%
T2 construct: host or cells: HEK-Blue hTLR8 (HEK293-derived SEAP reporter cells)
T2 sequence (Q9NR97 27-1041): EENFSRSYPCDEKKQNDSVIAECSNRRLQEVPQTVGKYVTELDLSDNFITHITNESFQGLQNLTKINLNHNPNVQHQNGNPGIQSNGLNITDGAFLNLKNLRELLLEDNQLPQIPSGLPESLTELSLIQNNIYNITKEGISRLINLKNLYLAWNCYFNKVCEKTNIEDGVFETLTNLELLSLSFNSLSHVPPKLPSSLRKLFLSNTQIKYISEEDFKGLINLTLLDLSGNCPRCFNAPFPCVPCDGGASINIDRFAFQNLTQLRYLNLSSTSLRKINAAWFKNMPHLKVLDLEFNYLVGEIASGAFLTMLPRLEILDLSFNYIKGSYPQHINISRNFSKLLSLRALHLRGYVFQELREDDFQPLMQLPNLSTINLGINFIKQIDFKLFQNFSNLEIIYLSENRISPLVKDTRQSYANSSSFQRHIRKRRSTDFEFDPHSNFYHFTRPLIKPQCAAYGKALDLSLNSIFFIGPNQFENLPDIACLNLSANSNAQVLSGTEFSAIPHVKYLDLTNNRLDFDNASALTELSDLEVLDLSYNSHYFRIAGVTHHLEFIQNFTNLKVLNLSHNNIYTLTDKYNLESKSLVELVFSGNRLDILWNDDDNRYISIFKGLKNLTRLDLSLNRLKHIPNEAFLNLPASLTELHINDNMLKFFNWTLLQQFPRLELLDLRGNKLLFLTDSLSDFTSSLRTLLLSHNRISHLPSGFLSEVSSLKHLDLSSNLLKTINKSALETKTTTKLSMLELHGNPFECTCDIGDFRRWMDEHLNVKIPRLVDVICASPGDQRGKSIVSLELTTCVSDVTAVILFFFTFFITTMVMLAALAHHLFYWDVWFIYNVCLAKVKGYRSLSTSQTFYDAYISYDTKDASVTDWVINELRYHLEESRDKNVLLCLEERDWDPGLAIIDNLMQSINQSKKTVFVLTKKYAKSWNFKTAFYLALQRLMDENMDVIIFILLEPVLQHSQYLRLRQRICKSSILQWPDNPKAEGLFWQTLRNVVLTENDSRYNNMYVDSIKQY
Procedure: as §1
After 24 hours, the supernatant and suspending cells were aspirated and replaced with fresh serum-free DMEM.
as §2

| Structure (SMILES) | TLR7 (normalized inhibitory effect on R848-induced signaling) [1] | WST1 (normalized toxicity effect) [2] | Remaining R848-induced TLR8 signaling (normalized activity; ligand+DMSO = 1, untreated = 0) [3] |
| --- | --- | --- | --- |
| CCOCc1nc(Br)c(-c2ccccc2)n1CC(C)C [Compound 57, 4-bromo-2-(ethoxymethyl)-1-(2-methylpropyl)-5-phenyl-1H-imidazole] | 0.1 ± 0.1 | 0.7 ± 0.1 | 0.01 ± 0.01 |
| CCOCc1ncc(-c2ccccc2)n1CC(C)C [Compound 55, 2-(ethoxymethyl)-1-(2-methylpropyl)-5-phenyl-1H-imidazole] | 0.6 ± 0.2 | 0.9 ± 0.3 | 0.8 ± 0.1 |
| CCOCc1ncc(-c2ccccc2)n1CC(C)(C)O [Compound 50, 1-[2-(ethoxymethyl)-5-phenyl-1H-imidazole-1-yl]-2-methylpropan-2-ol] | 1.0 ± 0.1 | 0.9 ± 0.2 | 1.1 ± 0.3 |
| CCOCc1nc(I)c(-c2cccc3ccccc23)n1CC(C)(C)O [Compound 62, 1-(2-(ethoxymethyl)-4-iodo-5-(naphthalen-1-yl)-1H-imidazole-1-yl)-2-methylpropan-2-ol] | 0.9 ± 0.1 | 0.8 ± 0.1 | 0.06 ± 0.1 |
| CCOCc1nc(Br)c(-c2ccccc2)n1CC(C)(C)O [Compound 52, 1-[4-bromo-2-(ethoxymethyl)-5-phenyl-1H-imidazole-1-yl]-2-methylpropan-2-ol] | 0.8 ± 0.2 | 1.1 ± 0.3 | 0.3 ± 0.2 |
| CCOCc1nc(C(=O)O)c(-c2ccccc2)n1CC(C)(C)O [Compound 54, 2-(ethoxymethyl)-1-(2-hydroxy-2-methylpropyl)-5-phenyl-1H-imidazole-4-carboxylic acid] | 0.9 ± 0.2 | 1.1 ± 0.3 | 0.9 ± 0.2 |
| CCOCc1nc(Cl)c(-c2ccccc2)n1CC(C)C [Compound 56, 4-chloro-2-(ethoxymethyl)-1-(2-methylpropyl)-5-phenyl-1H-imidazole] | 0.6 ± 0.2 | 0.7 ± 0.2 | 0.5 ± 0.2 |
| CCOCc1nc(COC)c(-c2ccccc2)n1CC(C)(C)O [Compound 44, 1-[2-(ethoxymethyl)-4-(methoxymethyl)-5-phenyl-1H-imidazole-1-yl]-2-methylpropan-2-ol] | 0.9 ± 0.2 | 0.8 ± 0.2 | 1.0 ± 0.3 |
| CCOCc1nc(C=O)c(-c2ccccc2)n1CC(C)(C)O [Compound 41, 2-(ethoxymethyl)-1-(2-hydroxy-2-methylpropyl)-5-phenyl-1H-imidazole-4-carbaldehyde] | 1.1 ± 0.2 | 0.7 ± 0.2 | 1.2 + 0.2 |
| CCOCc1nc(C(C)C)c(-c2ccccc2)n1CC(C)(C)O [Compound 48, 1-[2-(ethoxymethyl)-5-phenyl-4-(prop-2-yl)-1H-imidazole-1-yl]-2-methylpropan-2-ol] | 0.7 ± 0.1 | 0.8 ± 0.3 | 0.9 ± 0.2 |
| CCOCc1nc(C)c(-c2ccccc2)n1CC(C)(C)O [Compound 45, 1-[2-(ethoxymethyl)-4-methyl-5-phenyl-1H-imidazole-1-yl]-2-methylpropan-2-ol] | 0.9 ± 0.1 | 0.8 ± 0.3 | 0.8 ± 0.2 |
| CCOCc1nc(C#N)c(-c2ccccc2)n1CC(C)(C)O [Compound 38, 2-(ethoxymethyl)-1-(2-hydroxy-2-methylpropyl)-5-phenyl-1H-imidazole-4-carbonitrile] | 1.0 ± 0.2 | 0.7 ± 0.3 | 1.1 ± 0.2 |
